These results are taken from patent publication US8110550B2, “HDAC inhibitors and hormone targeted drugs for the treatment of cancer” (University of Maryland, Baltimore, priority 2007, dated 2012).

“Also recorded” adds a separate entry of the source. Where two headings read alike, the source gives them in different places.

One experiment concerns ER- MDA-MB-231 cells. The experiment can be described thus: MTT cell viability / proliferation assay, MDA-MB-231. It counts as cell-based. The procedure: (§1) IC50 and IC25 values for inhibitors is calculated from the linear regression line of the plot of percentage inhibition versus log inhibitor concentration. These IC50 values is used for combination or sequencing studies. The effect of combination or sequence of treatment is determined at IC25 of each agent.
(§2) For a cell proliferation assay, 10^4 cells were plated in a 96 well plate and treated with indicated drugs for 6 days. The medium was replaced after 3 days. On day 7, 500 μg/ml of MTT solution was added to each well and cells incubated for 3 hours. The tetrazolium dye trapped inside the mitochondria of the cells was dissolved in DMSO and the absorbance was measured at 560 nm.

The test system of a further experiment is Hs 578T. The experiment can be described thus: MTT cell proliferation assay, Hs 578T. The class given is cell-based. The conditions noted are these: Her-2 status +, read-out: IC50 values for inhibition of ER-cell proliferation, Hs 578T. The procedure:
MTT assay was performed to measure viability of breast cancer cells after treatment with various test compounds (Sabnis et al. 2005). IC50 and IC25 values for inhibitors is calculated from the linear regression line of the plot of percentage inhibition versus log inhibitor concentration. These IC50 values is used for combination or sequencing studies. The effect of combination or sequence of treatment is determined at IC25 of each agent.
Exemplary ER negative cell lines (MDA-MB-231) were used. For a cell proliferation assay, 10^4 cells were plated in a 96 well plate and treated with indicated drugs for 6 days. The medium was replaced after 3 days. On day 7, 500 μg/ml of MTT solution was added to each well and cells incubated for 3 hours. The tetrazolium dye trapped inside the mitochondria of the cells was dissolved in DMSO and the absorbance was measured at 560 nm.

Another experiment relates to SKBr3. The experiment in a line: MTT cell proliferation assay, SKBr3. Conditions: Her-2 status ++++, read-out: IC50 values for inhibition of ER-cell proliferation, SKBr3. The class given is cell-based. As to the method: as §1, §2
For the next experiment, the system named is aromatase (CYP19). The experiment can be described thus: Western immunoblotting for aromatase protein expression in MDA-MB-231 cells. The conditions noted are these: 24 hour treatment. The class given is cell-based. An excerpt:
(§3) Expression of ER and Aromatase proteins was examined by Western blotting. β-actin was used as a loading control.

Experiment [1] concerns aromatase. The experiment can be described thus: Radiometric 3H2O release assay for aromatase activity in MDA-MB-231 cells. The class given is cell-based. The arrangement: aromatase activity: dose or concentration left out as unconfirmed. The conditions noted are these: for aromatase activity after pre-treatment: MDA-MB-231 cells. The procedure: The aromatase activity assay was described by Yue et al. (1997). The expression and activation of aromatase was seen after treatment with HDACi. […] This up-regulation of aromatase activity was dose dependent.
150,000 cells were plated in IMEM without PR with 5% steroid free serum, 1% penicillin-streptomycin and 750 μg/ml G418. Next day the cells were incubated with 0.5 μCi of [1β^3H] androstenedione (Specific activity 23.5 Ci/mmole) in 1 ml of media containing 1% charcoal stripped serum for 18 hours. The medium was then collected and treated with TCA (trichloroacetic acid) to precipitate proteins. The residual steroids in the medium were extracted and removed with chloroform and further treated with a 2.5% charcoal suspension. The ^3H2O in the supernatant was measured using a scintillation counter. In this assay ^3H2O is released during conversion of [1β^3H] Δ4A to estrone, catalyzed by the enzyme aromatase. For pre-treatment studies, cells were plated as described above and then next day pre-treated with indicated agent for 24 hours before incubating with [1β^3H] Δ4A for 18 hours. The activity of the enzyme is corrected for protein concentration in the cells plated and treated.

In the next experiment the test system is ERα. The experiment in a line: Western immunoblotting for ERα protein expression in MDA-MB-231 cells. The class given is cell-based. The conditions noted are these: 10 nM.
Description: Protein expression of other ER inducible genes such as c-Myc and PgR can also be examined.
as §3

The next experiment concerns MDA-MB-231 xenografts. The experiment in a line: MDA-MB-231 xenografts in female ovariectomized nude mice. It counts as in vivo. The procedure: The tumors of MDA-MB-231 cells were grown in female ovariectomized nude mice. Sub-confluent cells were collected into Citric Saline, centrifuged and resuspended in Matrigel (10 mg/mL) at ˜2.5×10^7 cells/mL. Each mouse received subcutaneous inoculations in two sites per flank with 100 μL of cell suspension. Mice were then injected subcutaneously daily with 0.3% HPC in 0.9% NaCl (vehicle) until the tumors reached a measurable size (˜150 mm^3). At this point the mice were grouped such that the starting tumor volumes were not statistically different across the groups. The mice were injected with indicated agents (5× weekly) for indicated time. The tumors were measured weekly with calipers and the tumor volumes were calculated using the formula (4/3)πr1^2r2(r1≦r2).

Experiment [2] relates to aromatase. The experiment can be described thus: 3H2O release assay for aromatase activity in tumor homogenates. The class given is in vivo, mice. Conditions: MDA-MB-231 xenograft tumors. The procedure: (§4) Expression of ER and aromatase proteins was examined by Western blotting. β-actin was used as a loading control. The radiometric ^3H2O release assay for aromatase activity was performed as follows: the tumors were homogenized using ice-cold DPBS and the homogenate was used for the aromatase assay. ^3H2O release assay was performed using [1β^3H] androstenedione (Specific activity 23.5 Ci/mmole). The activity of the enzyme is corrected for protein concentration in the tumor homogenates.

Experiment [3] concerns ERα, aromatase and androgen receptor. The experiment in a line: Western blotting of xenograft tumors. The class given is in vivo, mice. Conditions: MDA-MB-231 xenograft tumors. The procedure: as §4
[4] abbreviates: Homo sapiens, MDA-MB-231, Her-2 status −, read-out: IC50 values for inhibition of ER-cell proliferation, MDA-MB-231.

For `CCCC(=O)O` [BA, butyric acid], the IC50 in the experiment with ER- MDA-MB-231 cells (setting [4]) was 20300 µM; in the experiment on ER- MDA-MB-231 cells (Homo sapiens, MDA-MB-231, MDA-MB-231 cells, single agent, read-out: IC50, inhibition of cell growth) it was 20300 µM; in the experiment on Hs 578T (Homo sapiens, Hs-578T), 67900 µM; in the experiment with SKBr3 (Homo sapiens, SK-BR-3) it was 17.2 µM. For the same compound, the growth inhibitory effect result with ER- MDA-MB-231 cells (MDA-MB-231 cells, single agent) is on record as “inhibited”. The “expression of aromatase up-regulated” value in the experiment on aromatase (CYP19) (1 μM) was 1.2 fold. The “aromatase activity after pre-treatment” value in the experiment with aromatase [1] is “upregulated”.
With `CC(=O)Nc1ccc(C(=O)Nc2ccccc2N)cc1` [CJ-994, 4-acetylamino-N-(2′-aminophenyl)-benzamide], the IC50 turned out to be 97.8 µM with ER- MDA-MB-231 cells (setting [4]); 0.122 µM with Hs 578T (Homo sapiens, Hs-578T); 8.52 µM in the experiment with SKBr3 (Homo sapiens, SK-BR-3).
As for `O=C(CCCCCCC(=O)Nc1ccccc1)NO` [SAHA, N′-hydroxy-N-phenyl-octanediamide], the IC50 in the experiment on Hs 578T (Homo sapiens, Hs-578T) amounted to 0.0169 µM. For the same compound, the “protein expression of ERα up-regulated” value with ERα is recorded as 9.9 fold. In addition, the “expression of aromatase up-regulated” value in the experiment with aromatase (CYP19) (10 nM) turned out to be 1.77 fold. In addition, in the experiment on aromatase [1], the “aromatase activity after pre-treatment” value is on record as “upregulated”.
Take `CC(C)(C#N)c1cc(Cn2cncn2)cc(C(C)(C)C#N)c1` [anastrozole]: the growth inhibitory effect result in the experiment with ER- MDA-MB-231 cells (MDA-MB-231 cells, single agent) is recorded as “refractory”.
The same measure, in the same setting: for `C=C1C[C@@H]2[C@H](CC[C@]3(C)C(=O)CC[C@@H]23)[C@@]2(C)C=CC(=O)C=C12` [exemestane] the value was “refractory”; for `C[C@]12CC[C@@H]3c4ccc(O)cc4C[C@@H](CCCCCCCCC[S+]([O-])CCCC(F)(F)C(F)(F)F)[C@H]3[C@@H]1CC[C@@H]2O` (stereo partly drawn) [fulvestrant], “refractory”.
Take `N#Cc1ccc(C(c2ccc(C#N)cc2)n2cncn2)cc1` [letrozole]: the IC50 in the experiment on ER- MDA-MB-231 cells (Homo sapiens, MDA-MB-231, MDA-MB-231 cells, combined with MS-275 (0.1 nM), read-out: IC50 of letrozole for cell growth inhibition) came out at 0.0154 µM; with ER- MDA-MB-231 cells (Homo sapiens, MDA-MB-231, MDA-MB-231 cells, combined with SAHA, read-out: IC50 of letrozole for cell growth inhibition), 1.13 µM. Further, the “cell growth inhibition in combination” value in the experiment on ER- MDA-MB-231 cells (MDA-MB-231 cells, letrozole combined with MS-275 (0.1 nM)) is recorded as “synergistically inhibit cell growth in a dose dependent manner”; in the experiment with ER- MDA-MB-231 cells (MDA-MB-231 cells, letrozole combined with SAHA), “synergistically inhibit cell growth in a dose dependent manner”. In addition, in the experiment on ER- MDA-MB-231 cells (MDA-MB-231 cells, single agent), the growth inhibitory effect entry is “refractory; also recorded: did not inhibit growth”.
Consider `CC/C(=C(\c1ccccc1)c1ccc(OCCN(C)C)cc1)c1ccccc1` [tamoxifen], for which, in the experiment with ER- MDA-MB-231 cells (MDA-MB-231 cells, single agent), the growth inhibitory effect entry is given as “refractory”.
Consider “N-(2-aminophenyl)-4-(N-(pyridin-3-ylmethoxycarbonyl)aminomethyl) benzamide [MS-275]”, for which the growth inhibitory effect entry with ER- MDA-MB-231 cells (MDA-MB-231 cells, single agent) is “significantly inhibited”. Besides, the IC50 with ER- MDA-MB-231 cells (MDA-MB-231 cells, single agent, read-out: IC50, growth inhibition) came to 0.0817 µM; with Hs 578T, 0.0281 µM; with SKBr3, 6.82e-05 µM. In the experiment with ERα, the “protein expression of ERα up-regulated” value is listed as 8 fold. The “expression of aromatase up-regulated” value with aromatase (CYP19) (10 nM) was 2.6 fold. The “aromatase activity after pre-treatment” value in the experiment on aromatase [1] is “upregulated”. In addition, the aromatase activity with aromatase [1] (then 1β-3H-androstenedione 18 hours, basal 3.02) is given as 15.193 pmoles/μg of protein/hour. For the same compound, in the experiment with MDA-MB-231 xenografts (5x weekly dosing), the “growth of MDA-MB-231 xenografts” value is on record as “inhibits growth of MDA-MB-231 xenografts”. The “effectiveness by route of administration” value in the experiment with MDA-MB-231 xenografts (oral versus other route) is “more effective when given orally”. Besides, in the experiment with MDA-MB-231 xenografts (ovariectomized mice, bioassay for estrogenic/antiestrogenic effects), the uterine weight result is “does not affect the uterine weight”. In addition, in the experiment on aromatase [2], the intra-tumoral aromatase activity entry is on record as “upregulates intra-tumoral aromatase activity”. Besides, the “expression of ERα, aromatase and androgen receptor in tumors” value in experiment [3] is reported as “upregulates”.
